Measurements from patent US20040229268A1, “Method and kit for identifying antibiotic-resistant microorganisms” (priority 2003, published 2004).

What was measured:
[1] = system: mecA gene; Staphylococcus spp. and S. aureus ribosomal nucleic acids; assay: HPA probe panel on clinical and ATCC isolates (Examples 8-9); assay type: binding
Experimental: Oxacillin MIC results were provided by an outside laboratory. The GP Probe results were determined as described in Example 8.

[2] = system: mecA gene; Staphylococcus ribosomal nucleic acids; assay: HPA after thermal lysis, base hydrolysis and neutralization (Examples 5-7); assay type: binding, S. aureus
Experimental: The cultured S. aureus specimens were lysed by suspending 1 μl loops of bacteria in 150 μl of lysis buffer and then incubating at 105° C. for 15 minutes. Next, 100 μl of 2 N LiOH base solution was added and RNA was hydrolyzed by incubating the mixtures at 60° C. for 15 minutes. Hydrolyzed samples were neutralized by the addition of 100 μl of a neutralizing reagent that included 2 N HCl and 100 mM succinate buffer (pH 5.5 prior to acidification with HCl). Specifically hybridized probe was detected by standard HPA, essentially as described in Example 1.
Specimens (1 μl loops of bacteria) were treated and tested essentially as described in Example 5 with the following differences: incubation for lysis was for 15 minutes and incubation for hybridization was for 45 minutes for samples shown in Tables 7-8, while incubation for lysis was for 10 minutes and incubation for hybridization was for 20 minutes for samples shown in Table 9. All of the base-treated solutions were neutralized by the addition of 250 μl of 0.8 N HCl containing 100 mM succinate.
2′-methoxy analogs of the AE-labeled DNA probes were prepared by standard phosphoramidite synthesis using 2′ methoxy phosphoramidite analogs. Additional linker positions, which are indicated by parentheses in Table 11, for probe 2 were also prepared for testing. Deoxy probes and 2′-methoxy probe analogs were tested essentially as described in Example 5, except as noted below. Probes synthesized using 2′-methoxy nucleotide analogs are particularly identified by the “MeO” designations. Brief summaries of the procedures used to obtain the results are appended to the tables.

[3] = system: mecA gene; rRNA (pan-bacterial probe); assay: Hybridization Protection Assay (HPA), AE-labeled probes, thermally lysed specimens (Examples 1-2); assay type: binding, S. aureus
Experimental: The specimens were lysed by suspending approximately 5×10^8 cells in a lysis buffer (0.1% lithium lauryl sulfate, 1 mM EDTA, 20 mM lithium succinate, pH 5.5) and then incubating in a heat block set at 110° C. for 20 minutes. Thermal lysis of a variety of other specimens was effected under a range of temperature (heat block set at about 95° C. to 110° C.) and time (about 10 to 25 minutes) conditions. The lysed samples were tested for the presence of target sequences complementary to the probes using a Hybridization Protection Assay (HPA) as described by Arnold et al., in Clin. Chem. 35:1588(1989) and U.S. Pat. No. 6,004,745. 50 μl of the heat-treated suspension was incubated with an equal volume of AE-labeled probe in 2× hybridization buffer (1.2 M LiCl, 2% lithium lauryl sulfate, 20 mM EDTA, 20 mM EGTA, 100 mM lithium succinate, pH 5.5) at 60° C. for 30 minutes. The pH of succinate solutions may range from about 4.5 to about 5.5, although it is desirable to use a pH of 4.8 for succinate buffering. 300 μl of a selection reagent (0.6 M borate buffered solution, pH 8.5; note, pH may vary from 8.0 to 9.0) was added, the mixture was heated at 60° C. for 10 minutes to effect differential hydrolysis, and the samples were read in a GEN-PROBE® LEADER® luminometer using sequential 300 μl injections of 0.1% H2O2 and 1 N NaOH solutions (see Arnold et al, supra; GEN-PROBE® Detection Reagent Kit, Cat. No. 1791 may be used).
Procedures similar to those described in Example 1 were conducted using a large number of bacterial samples, except that parallel hybridization reactions employed a pan-bacterial probe which targeted rRNA (Probe Reagent 1, GEN-PROBE® MTC-NI Kit, catalog no. 4573). […] The pan-bacterial probe reagent served as a positive control for lysis of all of the specimens. In this procedure each sample was tested against a panel of the three probes contained in separate hybridization reactions. Aliquots of the samples tested using the pan-bacterial probe reagent were diluted 1:3000 prior to performing luminometry so that results fell within the linear range of the detector. The signals indicated lysis and detection of ribosomal nucleic acids in each of the samples. These values depended on the number of bacterial cells in the specimen, as well as on the extent of cell lysis and the release or accessibility of ribosomal nucleic acids from the cells to be detected by the pan-bacterial probe.

CCGAACTGAGAACAACTTTATGGGATTTGC (chemistry not given here) [Staphylococcus spp. probe with helpers]
HPA Results (# positive for indicated probes) ([1]; ATCC MRSA, 1 isolate, Oxacillin MIC 16 μg/ml): 1
HPA Results (# positive for indicated probes) ([1]; ATCC MSSA, 1 isolate, Oxacillin MIC 1 μg/ml): 1
HPA Results (# positive for indicated probes) ([1]; ATCC MSSA, 4 isolates, Oxacillin MIC 0.5 μg/ml): 4
HPA Results (# positive for indicated probes) ([1]; ATCC MSSA, 6 isolates, Oxacillin MIC ≦0.25 μg/ml): 6
HPA Results (# positive for indicated probes) ([1]; Clinical MRSA, 8 isolates, Oxacillin MIC 16 μg/ml): 8
HPA Results (# positive for indicated probes) ([1]; Clinical MRSA, 107 isolates, Oxacillin MIC >16 μg/ml): 107
HPA Results (# positive for indicated probes) ([1]; Clinical MSSA, 28 isolates, Oxacillin MIC 0.5 μg/ml): 28
HPA Results (# positive for indicated probes) ([1]; Clinical MSSA, 99 isolates, Oxacillin MIC ≦0.25 μg/ml): 99
HPA Results (RLU) ([1]; GP21 (S. aureus, mecA(−), MSSA)): 373232 RLU
HPA Results (RLU) ([1]; GP22 (CoNS, mecA(+))): 225141 RLU
HPA Results (RLU) ([1]; GP23 (S. aureus, mecA(−))): 301657 RLU
HPA Results (RLU) ([1]; GP24 (S. aureus, mecA(+))): 306718 RLU
HPA Results (RLU) ([1]; GP25 (S. aureus, mecA(+))): 456426 RLU
HPA Results (RLU) ([1]; GP26 (S. aureus, mecA(−))): 262267 RLU
HPA Results (RLU) ([1]; GP27 (CoNS, mecA(−))): 182304 RLU
HPA Results (RLU) ([1]; GP28 (S. aureus, mecA(−))): 246636 RLU
HPA Results (RLU) ([1]; GP29 (S. aureus, mecA(+))): 388748 RLU
HPA Results (RLU) ([1]; GP30 (S. aureus, mecA(−))): 440128 RLU
HPA Results (RLU) ([1]; GP31 (S. aureus, mecA(+))): 349207 RLU
HPA Results (RLU) ([1]; GP32 (S. aureus, mecA(−))): 432041 RLU
HPA Results (RLU) ([1]; GP33 (S. aureus, mecA(+))): 160830 RLU
HPA Results (RLU) ([1]; GP34 (S. aureus, mecA(−))): 634079 RLU
HPA Results (RLU) ([1]; GP35 (S. aureus, mecA(+))): 543089 RLU
HPA Results (RLU) ([1]; GP36 (S. aureus, mecA(−))): 370898 RLU
HPA Results (RLU) ([1]; GP37 (S. aureus, mecA(+))): 397722 RLU
HPA Results (RLU) ([1]; GP38 (S. aureus, mecA(+))): 387613 RLU
HPA Results (RLU) ([1]; GP39 (S. aureus, mecA(−))): 280358 RLU
HPA Results (RLU) ([1]; GP40 (S. aureus, mecA(−))): 292407 RLU
HPA Results (RLU) ([1]; Neg Control (Hybridization Buffer)): 1775 RLU
HPA Results (RLU) ([1]; Pos Control GP1217 (S. aureus, mecA(+), MRSA)): 170530 RLU
HPA Results (# positive for indicated probes) ([1]; S. epidermidis, 1 isolate, Oxacillin MIC >16 μg/ml): 1
HPA Results (# positive for indicated probes) ([1]; S. epidermidis, 2 isolates, Oxacillin MIC ≦0.25 μg/ml): 2
HPA Results (# positive for indicated probes) ([1]; S. hemoliticus, 1 isolate, Oxacillin MIC ≦0.25 μg/ml): 1
HPA Results (# positive for indicated probes) ([1]; S. hominis, 1 isolate, Oxacillin MIC ≦0.25 μg/ml): 1
HPA Results (# positive for indicated probes) ([1]; S. hyicus-hyicus, 1 isolate, Oxacillin MIC ≦0.25 μg/ml): 1
HPA Results (# positive for indicated probes) ([1]; S. intermedius, 1 isolate, Oxacillin MIC ≦0.25 μg/ml): 1
HPA Results (# positive for indicated probes) ([1]; S. saprophyticus, 1 isolate, Oxacillin MIC 0.5 μg/ml): 1
HPA Results (# positive for indicated probes) ([1]; S. simulans, 1 isolate, Oxacillin MIC ≦0.25 μg/ml): 1
HPA Results (# positive for indicated probes) ([1]; S. warneri, 1 isolate, Oxacillin MIC ≦0.25 μg/ml): 1
RLU ([2]; Table 6, GP18(Neg), MSSA ATCC #12600): 170,434 RLU
RLU ([2]; Table 6, GP1214(Neg), MSSA ATCC #29247): 234,286 RLU
RLU ([2]; Table 6, GP1217(Pos), MRSA ATCC #33591): 225,772 RLU
RLU ([2]; Table 6, GP1218(Pos), MRSA ATCC #43866): 203,488 RLU

CGCTATGATCCCAATCTAACTTCCACATACC (AE label, linker between 21 and 22, chemistry not fully specified; listed as Staphylococcus aureus) [Probe 2]
AE-probe Average RLU ([3]; No Specimen): 3062 RLU
AE-probe Average RLU ([3]; S. aureus specimen #99, mecA PCR Pos): 8072 RLU
AE-probe Average RLU ([3]; S. aureus specimen #100, mecA PCR Neg): 5585 RLU
AE-Probe Signal (RLU) ([3]; Table 2, Negative Control): 1931 RLU
AE-Probe Signal (RLU) ([3]; Table 2, specimen 10, mecA PCR Neg, pan-bacterial diluted 1:3000 prior to luminometry): 3274 RLU
AE-Probe Signal (RLU) ([3]; Table 2, specimen 99, mecA PCR Pos, pan-bacterial diluted 1:3000 prior to luminometry): 13021 RLU
AE-Probe Signal (RLU) ([3]; Table 2, specimen 100, mecA PCR Neg, pan-bacterial diluted 1:3000 prior to luminometry): 6186 RLU
AE-Probe Signal (RLU) ([3]; Table 2, specimen 101, mecA PCR Neg, pan-bacterial diluted 1:3000 prior to luminometry): 6266 RLU
AE-Probe Signal (RLU) ([3]; Table 2, specimen 102, mecA PCR Pos, pan-bacterial diluted 1:3000 prior to luminometry): 13065 RLU
AE-Probe Signal (RLU) ([3]; Table 2, specimen 103, mecA PCR Neg, pan-bacterial diluted 1:3000 prior to luminometry): 2366 RLU
AE-Probe Signal (RLU) ([3]; Table 2, specimen 104, mecA PCR Neg, pan-bacterial diluted 1:3000 prior to luminometry): 2000 RLU
AE-Probe Signal (RLU) ([3]; Table 2, specimen 105, mecA PCR Neg, pan-bacterial diluted 1:3000 prior to luminometry): 2714 RLU
AE-Probe Signal (RLU) ([3]; Table 2, specimen 106, mecA PCR Neg, pan-bacterial diluted 1:3000 prior to luminometry): 2989 RLU
AE-Probe Signal (RLU) ([3]; Table 2, specimen 139, mecA PCR Pos, pan-bacterial diluted 1:3000 prior to luminometry): 9563 RLU
AE-Probe Signal (RLU) ([3]; Table 2, specimen 140, mecA PCR Pos, pan-bacterial diluted 1:3000 prior to luminometry): 4967 RLU
AE-Probe Signal (RLU) ([3]; Table 2, specimen 142, mecA PCR Pos, pan-bacterial diluted 1:3000 prior to luminometry): 10345 RLU
AE-Probe Signal (RLU) ([3]; Table 2, specimen 145, mecA PCR Neg, pan-bacterial diluted 1:3000 prior to luminometry): 2788 RLU
AE-Probe Signal (RLU) ([3]; Table 2, specimen 148, mecA PCR Pos, pan-bacterial diluted 1:3000 prior to luminometry): 15878 RLU
AE-Probe Signal (RLU) ([3]; Table 2, specimen 155, mecA PCR Neg, pan-bacterial diluted 1:3000 prior to luminometry): 2257 RLU
AE-Probe Signal (RLU) ([3]; Table 2, specimen 164, mecA PCR Neg, pan-bacterial diluted 1:3000 prior to luminometry): 3287 RLU
AE-Probe Signal (RLU) ([3]; Table 2, specimen 178, mecA PCR Pos, pan-bacterial diluted 1:3000 prior to luminometry): 12652 RLU
AE-Probe Signal (RLU) ([3]; Table 2, specimen 188, mecA PCR Pos, pan-bacterial diluted 1:3000 prior to luminometry): 20757 RLU
AE-Probe Signal (RLU) ([3]; Table 2, specimen 270, mecA PCR Pos, pan-bacterial diluted 1:3000 prior to luminometry): 14965 RLU
AE-Probe Signal (RLU) ([3]; Table 2, specimen 296, mecA PCR Pos, Lab Pos control, pan-bacterial diluted 1:3000 prior to luminometry): 10585 RLU
